Experimental data: US20240376094A2, “SELECTIVE BCL-XL PROTAC COMPOUNDS AND METHODS OF USE” (Les Laboratoires Servier, priority 2021, published 2024)
pIC50: −log10 of the molar value.

Legend:
MOLT-4 cells = experiment: MOLT-4 cell viability, CTG assay; assay type: cell-based; details: Homo sapiens, MOLT-4, 48 h
Procedure, shortened: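 Cells grown in RPMI 1640 with 10% FBS at 37° C, 5% CO2, then exposed to compounds for 48 h (11-point 5-fold dilution, triplicates). ATP measured by CellTiter-Glo luminescence; IC50 from four-parameter fit versus control, mean of ≥2 independent experiments.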

endogenous BCL-xL = biological target: T1, endogenous BCL-xL (Homo sapiens, UniProt Q07817); experiment: Degradation of endogenous BCL-xL in COR-L105 (ProteinSimple Jess); assay type: cell-based; details: COR-L105, 24 h, COR-L105, dose 300 nM, read-out: % BCL-xL vs. Untreated, COR-L105
T1 construct: endogenous in cells; host or cells: COR-L105 (ECACC No. 92031918); NCI-H1650 (ATCC No. CRL-5883)
T1 sequence (Q07817 whole entry): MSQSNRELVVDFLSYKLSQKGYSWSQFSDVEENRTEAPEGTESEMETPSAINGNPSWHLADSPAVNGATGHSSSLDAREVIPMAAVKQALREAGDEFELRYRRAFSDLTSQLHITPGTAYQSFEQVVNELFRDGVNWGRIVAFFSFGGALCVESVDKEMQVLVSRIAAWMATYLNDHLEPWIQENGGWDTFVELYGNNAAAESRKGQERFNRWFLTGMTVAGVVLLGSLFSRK
Procedure, shortened: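 COR-L105 cells (2,000,000/well) treated 24 h at 37 °C with compound at 100–300 nM final, singlet, alongside untreated cells. RIPA lysates normalized by BCA to 1.5 mg/mL, then BCL-xL detected by capillary immunoassay (2–40 kDa Jess) comparing treated with untreated lysates.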

Structure (SMILES)	pIC50 (MOLT-4 cells)	remaining activity at 0.3 µM (endogenous BCL-xL) [%]
Cc1ncsc1-c1ccc(CNC(=O)C2C[C@@H](O)CN2C(=O)C(NC(=O)CCCCCC(=O)N2CCN(CC#Cc3ccc(OCCCc4sc(N5CCCc6c5nnc(Nc5nc7ccccc7s5)c6C)nc4C(=O)O)c(F)c3)CC2)C(C)(C)C)cc1 (stereo in doubt) [Example 15, 2-[3-(1,3-benzothiazol-2-ylamino)-4-methyl-6,7-dihydro-5H-pyrido[2,3-c]pyridazin-8-yl]-5-[3-[2-fluoro-4-[3-[4-[7-[[(1S)-1-[(2S,4R)-4-hydroxy-2-[[4-(4-methylthiazol-5-yl)phenyl]methylcarbamoyl]pyrrolidine-1-carbonyl]-2,2-dimethyl-propyl]amino]-7-oxo-heptanoyl]piperazin-1-yl]prop-1-ynyl]phenoxy]propyl] thiazole-4-carboxylic acid]	7.65	
Cc1ncsc1-c1ccc(CNC(=O)[C@@H]2CC(O)CN2C(=O)C(NC(=O)CCCCCCC(=O)N2CCN(CCOC34CC5(C)CC(C)(CC(Cn6ncc(-c7ccc(N8CCCc9c8nnc(Nc8nc%10ccccc%10s8)c9C)nc7C(=O)O)c6C)(C5)C3)C4)CC2)C(C)(C)C)cc1 (stereo in doubt) [Example 24, 6-[3-(1,3-benzothiazol-2-ylamino)-4-methyl-6,7-dihydro-5H-pyrido[2,3-c]pyridazin-8-yl]-3-[1-[[3-[2-[4-[8-[[(1S)-1-[(2S,4R)-4-hydroxy-2-[[4-(4-methylthiazol-5-yl)phenyl]methylcarbamoyl]pyrrolidine-1-carbonyl]-2,2-dimethyl-propyl]amino]-8-oxo-octanoyl]piperazin-1-yl]ethoxy]-5,7-dimethyl-1-adamantyl]methyl]-5-methyl-pyrazol-4-yl]pyridine-2-carboxylic acid]		40
Cc1ncsc1-c1ccc([C@H](C)NC(=O)[C@@H]2C[C@@H](O)CN2C(=O)[C@@H](NC(=O)CCCCCCCCCCCCCCCN(C)CCOC23CC4(C)CC(C)(CC(Cn5ncc(-c6ccc(N7CCCc8c7nnc(Nc7nc9ccccc9s7)c8C)nc6C(=O)O)c5C)(C4)C2)C3)C(C)(C)C)cc1 [Example 1, 6-[3-(1,3-benzothiazol-2-ylamino)-4-methyl-6,7-dihydro-5H-pyrido[2,3-c]pyridazin-8-yl]-3-[1-[[3-[2-[[16-[[(1S)-1-[(2S,4R)-4-hydroxy-2-[[(1S)-1-[4-(4-methylthiazol-5-yl)phenyl]ethyl]carbamoyl]pyrrolidine-1-carbonyl]-2,2-dimethyl-propyl]amino]-16-oxo-hexadecyl]-methyl-amino]ethoxy]-5,7-dimethyl-1-adamantyl]methyl]-5-methyl-pyrazol-4-yl]pyridine-2-carboxylic acid]	8.47	
Cc1ncsc1-c1ccc([C@H](C)NC(=O)[C@@H]2C[C@@H](O)CN2C(=O)[C@@H](NC(=O)CCCCCCCCN(C)CCOC23CC4(C)CC(C)(CC(Cn5ncc(-c6ccc(N7CCCc8c7nnc(Nc7nc9ccccc9s7)c8C)nc6C(=O)O)c5C)(C4)C2)C3)C(C)(C)C)cc1 [Example 5, 6-[3-(1,3-benzothiazol-2-ylamino)-4-methyl-6,7-dihydro-5H-pyrido[2,3-c]pyridazin-8-yl]-3-[1-[[3-[2-[[9-[[(1S)-1-[(2S,4R)-4-hydroxy-2-[[(1S)-1-[4-(4-methylthiazol-5-yl)phenyl]ethyl]carbamoyl]pyrrolidine-1-carbonyl]-2,2-dimethyl-propyl]amino]-9-oxo-nonyl]-methyl-amino]ethoxy]-5,7-dimethyl-1-adamantyl]methyl]-5-methyl-pyrazol-4-yl]pyridine-2-carboxylic acid]	7.80	
Cc1ncsc1-c1ccc([C@H](C)NC(=O)[C@@H]2C[C@@H](O)CN2C(=O)[C@@H](NC(=O)CCCCCCCN(C)CCOC23CC4(C)CC(C)(CC(Cn5ncc(-c6ccc(N7CCCc8c7nnc(Nc7nc9ccccc9s7)c8C)nc6C(=O)O)c5C)(C4)C2)C3)C(C)(C)C)cc1 [Example 6, 6-[3-(1,3-benzothiazol-2-ylamino)-4-methyl-6,7-dihydro-5H-pyrido[2,3-c]pyridazin-8-yl]-3-[1-[[3-[2-[[8-[[(1S)-1-[(2S,4R)-4-hydroxy-2-[[(1S)-1-[4-(4-methylthiazol-5-yl)phenyl]ethyl]carbamoyl]pyrrolidine-1-carbonyl]-2,2-dimethyl-propyl]amino]-8-oxo-octyl]-methyl-amino]ethoxy]-5,7-dimethyl-1-adamantyl]methyl]-5-methyl-pyrazol-4-yl]pyridine-2-carboxylic acid]	7.54	

Now from value to compound:

pIC50 (MOLT-4 cells)	remaining activity at 0.3 µM (endogenous BCL-xL) [%]	Structure (SMILES)
8.15		Cc1ncsc1-c1ccc([C@H](C)NC(=O)C2CC(O)CN2C(=O)C(NC(=O)CCCCCCCCCCCN2CCN(CC#Cc3ccc(OCCCc4sc(N5CCCc6c5nnc(Nc5nc7ccccc7s5)c6C)nc4C(=O)O)c(F)c3)CC2)C(C)(C)C)cc1 (stereo in doubt) [Example 31, 2-[3-(1,3-benzothiazol-2-ylamino)-4-methyl-6,7-dihydro-5H-pyrido[2,3-c]pyridazin-8-yl]-5-[3-[2-fluoro-4-[3-[4-[12-[[(1S)-1-[(2S,4R)-4-hydroxy-2-[[(1S)-1-[4-(4-methylthiazol-5-yl)phenyl]ethyl]carbamoyl]pyrrolidine-1-carbonyl]-2,2-dimethyl-propyl]amino]-12-oxo-dodecyl]piperazin-1-yl]prop-1-ynyl]phenoxy]propyl] thiazole-4-carboxylic acid]
	64.8	Cc1ncsc1-c1ccc(CNC(=O)[C@@H]2C[C@@H](O)CN2C(=O)[C@@H](NC(=O)CCCCCCC(=O)N2CCN(CC#Cc3ccc(OCCCc4sc(N5CCCc6c5nnc(Nc5nc7ccccc7s5)c6C)nc4C(=O)O)c(F)c3)CC2)C(C)(C)C)cc1 [Example 33, 2-(3-(benzo[d]thiazol-2-ylamino)-4-methyl-6,7-dihydropyrido [2,3-c]pyridazin-8(5H)-yl)-5-(3-(2-fluoro-4-(3-(4-(8-(((S)-1-((2S,4R)-4-hydroxy-2-((4-(4-methylthiazol-5-yl)benzyl)carbamoyl)pyrrolidin-1-yl)-3,3-dimethyl-1-oxobutan-2-yl)amino)-8-oxooctanoyl)piperazin-1-yl)prop-1-yn-1-yl)phenoxy)propyl) thiazole-4-carboxylic acid]
	> 90	Cc1ncsc1-c1ccc([C@H](C)NC(=O)[C@@H]2C[C@@H](O)CN2C(=O)[C@@H](NC(=O)CCCC(=O)N2CCN(CC#Cc3ccc(OCCCc4sc(N5CCCc6c5nnc(Nc5nc7ccccc7s5)c6C)nc4C(=O)O)c(F)c3)CC2)C(C)(C)C)cc1 [Example 35, 2-(3-(benzo[d]thiazol-2-ylamino)-4-methyl-6,7-dihydropyrido [2,3-c]pyridazin-8(5H)-yl)-5-(3-(2-fluoro-4-(3-(4-(5-(((S)-1-((2S,4R)-4-hydroxy-2-(((S)-1-(4-(4-methylthiazol-5-yl)phenyl)ethyl)carbamoyl)pyrrolidin-1-yl)-3,3-dimethyl-1-oxobutan-2-yl)amino)-5-oxopentanoyl)piperazin-1-yl)prop-1-yn-1-yl)phenoxy)propyl)thiazole-4-carboxylic acid]
	33.3	Cc1ncsc1-c1ccc([C@H](C)NC(=O)[C@@H]2C[C@@H](O)CN2C(=O)[C@@H](NC(=O)CC23CC4CC(C2)CC(CC(=O)N2CCN(CC#Cc5ccc(OCCCc6sc(N7CCCc8c7nnc(Nc7nc9ccccc9s7)c8C)nc6C(=O)O)c(F)c5)CC2)(C4)C3)C(C)(C)C)cc1 [Example 42, 2-(3-(benzo[d]thiazol-2-ylamino)-4-methyl-6,7-dihydropyrido [2,3-c]pyridazin-8(5H)-yl)-5-(3-(2-fluoro-4-(3-(4-(2-((3S,5R)-3-(2-(((S)-1-((2S,4R)-4-hydroxy-2-(((S)-1-(4-(4-methylthiazol-5-yl)phenyl)ethyl)carbamoyl)pyrrolidin-1-yl)-3,3-dimethyl-1-oxobutan-2-yl)amino)-2-oxoethyl)adamantan-1-yl)acetyl)piperazin-1-yl)prop-1-yn-1-yl)phenoxy)propyl)thiazole-4-carboxylic acid]
	22.3	Cc1ncsc1-c1ccc([C@H](C)NC(=O)[C@@H]2C[C@@H](O)CN2C(=O)[C@@H](NC(=O)CCCCCCCCCCC(=O)N2CCN(CCOC34CC5(C)CC(C)(CC(Cn6ncc(-c7ccc(N8CCCc9c8nnc(Nc8nc%10ccccc%10s8)c9C)nc7C(=O)O)c6C)(C5)C3)C4)CC2)C(C)(C)C)cc1 [Example 47, 6-(3-(benzo[d]thiazol-2-ylamino)-4-methyl-6,7-dihydropyrido [2,3-c]pyridazin-8(5H)-yl)-3-(1-(((1r,3s,5R,7S)-3-(2-(4-(12-(((S)-1-((2S,4R)-4-hydroxy-2-(((S)-1-(4-(4-methylthiazol-5-yl)phenyl)ethyl)carbamoyl)pyrrolidin-1-yl)-3,3-dimethyl-1-oxobutan-2-yl)amino)-12-oxododecanoyl)piperazin-1-yl)ethoxy)-5,7-dimethyladamantan-1-yl)methyl)-5-methyl-1H-pyrazol-4-yl)picolinic acid]
